The results in this text go back to ChEMBL document CHEMBL2046367, “Novel BACE1 inhibitors possessing a 5-nitroisophthalic scaffold at the P2 position” (Bioorg Med Chem Lett, 2012).

Assay [1] concerns the target T1, Beta-secretase 1 (Homo sapiens, UniProt P56817). Kind of assay: Inhibition of human recombinant BACE1 at 2 uM by FRET assay.
Assay [2] has as its target T1, Beta-secretase 1. Kind of assay: Inhibition of human recombinant BACE1 at 0.2 uM by FRET assay.
In assay [3] the target is T1, Beta-secretase 1. Kind of assay: Inhibition of human recombinant BACE1 by FRET assay.

T1 sequence (P56817 whole entry): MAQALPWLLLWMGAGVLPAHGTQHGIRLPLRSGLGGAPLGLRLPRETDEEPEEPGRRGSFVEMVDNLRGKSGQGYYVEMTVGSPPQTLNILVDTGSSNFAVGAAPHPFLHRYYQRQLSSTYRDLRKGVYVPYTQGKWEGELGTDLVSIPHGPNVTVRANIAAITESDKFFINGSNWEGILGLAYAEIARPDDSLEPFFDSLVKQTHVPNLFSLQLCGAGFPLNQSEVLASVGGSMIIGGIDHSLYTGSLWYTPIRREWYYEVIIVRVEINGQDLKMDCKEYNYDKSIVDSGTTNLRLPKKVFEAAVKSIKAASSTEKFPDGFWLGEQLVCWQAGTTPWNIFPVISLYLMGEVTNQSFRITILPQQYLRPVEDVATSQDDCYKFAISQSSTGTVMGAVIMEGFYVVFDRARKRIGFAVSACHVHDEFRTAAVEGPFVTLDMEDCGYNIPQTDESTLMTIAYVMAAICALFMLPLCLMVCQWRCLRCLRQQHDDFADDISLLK

As to `O=C(N[C@@H](Cc1ccccc1)[C@H](O)C(=O)Nc1cccc(-c2nn[nH]n2)c1)c1cc(C(=O)N2COC[C@@H]2CC2CCCCC2)cc([N+](=O)[O-])c1`, the inhibition at Beta-secretase 1 [1] is 50%. The same measure, in the same setting: with `O=C(N[C@@H](Cc1ccccc1)[C@H](O)C(=O)Nc1cccc(-c2nn[nH]n2)c1)c1cc(C(=O)N2CCCCC2)cc([N+](=O)[O-])c1` the figure was 49%.

On to `O=C(N[C@@H](Cc1ccccc1)[C@H](O)C(=O)Nc1cccc(-c2nn[nH]n2)c1)c1cc(C(=O)N2CCCC2)cc([N+](=O)[O-])c1`, for which, at Beta-secretase 1 [1], the inhibition came out at 24%.

`CC[C@H]1COCN1C(=O)c1cc(C(=O)N[C@@H](Cc2ccccc2)[C@H](O)C(=O)Nc2cccc(-c3nn[nH]n3)c2)cc([N+](=O)[O-])c1`: the inhibition stood at 92% on Beta-secretase 1 [1] and 54% at Beta-secretase 1 [2].

Consider `O=C(N[C@@H](Cc1ccccc1)[C@H](O)C(=O)Nc1cccc(-c2nn[nH]n2)c1)c1cc(Br)cc(C(=O)N2COC[C@@H]2c2ccccc2)c1`, for which the values for the inhibition on Beta-secretase 1 [1] and on Beta-secretase 1 [2] were 98% and 84%, respectively. At Beta-secretase 1 [3], the IC50 is 25 nM. Consider `CCCN(CCC)C(=O)c1cc(C(=O)N[C@@H](Cc2ccccc2)[C@H](O)C(=O)Nc2cccc(-c3nn[nH]n3)c2)cc([N+](=O)[O-])c1`, for which, on Beta-secretase 1 [1], the inhibition was found to be 79%. For `CCCC[C@H]1COCN1C(=O)c1cc(C(=O)N[C@@H](Cc2ccccc2)[C@H](O)C(=O)Nc2cccc(-c3nn[nH]n3)c2)cc([N+](=O)[O-])c1`, the inhibition is 92% at Beta-secretase 1 [1] and 59% at Beta-secretase 1 [2]. As for `CC(C)(C)c1cc(C(=O)N[C@@H](Cc2ccccc2)[C@H](O)C(=O)Nc2cccc(-c3nn[nH]n3)c2)cc(C(=O)N2COC[C@@H]2c2ccccc2)c1`, on Beta-secretase 1 [1], the inhibition amounted to 63%. `O=C(N[C@@H](Cc1ccccc1)[C@H](O)C(=O)Nc1cccc(-c2nn[nH]n2)c1)c1cc(I)cc(C(=O)N2COC[C@@H]2c2ccccc2)c1`: the inhibition at Beta-secretase 1 [1] came to 98%; at Beta-secretase 1 [2], 78%.

`CCC[C@H]1COCN1C(=O)c1cc(C(=O)N[C@@H](Cc2ccccc2)[C@H](O)C(=O)Nc2cccc(-c3nn[nH]n3)c2)cc([N+](=O)[O-])c1`: the inhibition at Beta-secretase 1 [1] amounted to 93%; on Beta-secretase 1 [2] it was 57%. As to `Cc1cc(C(=O)N[C@@H](Cc2ccccc2)[C@H](O)C(=O)Nc2cccc(-c3nnn[nH]3)c2)cc(C(=O)N2COC[C@@H]2c2ccccc2)c1`, on Beta-secretase 1 [3], the IC50 worked out at 67 nM.

For `COC[C@H]1CCCN1C(=O)c1cc(C(=O)N[C@@H](Cc2ccccc2)[C@H](O)C(=O)Nc2cccc(-c3nn[nH]n3)c2)cc([N+](=O)[O-])c1`, the inhibition came to 89% at Beta-secretase 1 [1] and 57% at Beta-secretase 1 [2]. For `O=C(O)c1cc(C(=O)N[C@@H](Cc2ccccc2)[C@H](O)C(=O)Nc2cccc(-c3nn[nH]n3)c2)cc(C(=O)N2COC[C@@H]2c2ccccc2)c1`, the results for the inhibition on Beta-secretase 1 [1] and on Beta-secretase 1 [2] were 91% and 60%, respectively. The IC50 on Beta-secretase 1 [3] was found to be 122 nM. With `O=C(N[C@@H](Cc1ccccc1)[C@H](O)C(=O)Nc1cccc(-c2nn[nH]n2)c1)c1cc(C(=O)N2CCCCCCCC2)cc([N+](=O)[O-])c1`, on Beta-secretase 1 [1], the inhibition was determined as 28%. Consider `C[C@@H](NC(=O)c1cc(C(=O)N[C@@H](Cc2ccccc2)[C@H](O)C(=O)Nc2cccc(-c3nn[nH]n3)c2)cc([N+](=O)[O-])c1)c1ccc(F)cc1`, for which the inhibition was 87% at Beta-secretase 1 [1] and 50% at Beta-secretase 1 [2].

For the compound `CC(=O)Oc1cc(C(=O)N[C@@H](Cc2ccccc2)[C@H](O)C(=O)Nc2cccc(-c3nn[nH]n3)c2)cc(C(=O)N2COC[C@@H]2c2ccccc2)c1`, the inhibition at Beta-secretase 1 [1] was 79%. `O=C(N[C@@H](Cc1ccccc1)[C@H](O)C(=O)Nc1cccc(-c2nn[nH]n2)c1)c1cc(C(=O)N2CCCCCCC2)cc([N+](=O)[O-])c1`: the inhibition at Beta-secretase 1 [1] came out at 80%; at Beta-secretase 1 [2], 38%. As to `O=C(N[C@@H](Cc1ccccc1)[C@H](O)C(=O)Nc1cccc(-c2nn[nH]n2)c1)c1cc(C(=O)N2COC[C@@H]2c2ccccc2)cc([N+](=O)[O-])c1`, the inhibition on Beta-secretase 1 [1] is 98%; at Beta-secretase 1 [2], 88%. The IC50 at Beta-secretase 1 [3] amounted to 19 nM. The like results for `O=C(N[C@@H](Cc1ccccc1)[C@H](O)C(=O)Nc1cccc(-c2nn[nH]n2)c1)c1cc(C(=O)N2COC[C@@H]2c2ccc(F)cc2)cc([N+](=O)[O-])c1` were, in that order, 99%, 91% and 13 nM. Turning to `CC(C)(C)[C@H]1COCN1C(=O)c1cc(C(=O)N[C@@H](Cc2ccccc2)[C@H](O)C(=O)Nc2cccc(-c3nn[nH]n3)c2)cc([N+](=O)[O-])c1`, the inhibition at Beta-secretase 1 [1] came out at 71%. For the compound `CCC(C)[C@H]1COCN1C(=O)c1cc(C(=O)N[C@@H](Cc2ccccc2)[C@H](O)C(=O)Nc2cccc(-c3nn[nH]n3)c2)cc([N+](=O)[O-])c1` (stereo partly specified), the inhibition was determined as 94% on Beta-secretase 1 [1] and 62% on Beta-secretase 1 [2].

Take `Cc1cc(C(=O)N[C@@H](Cc2ccccc2)[C@H](O)C(=O)Nc2cccc(-c3nn[nH]n3)c2)cc(C(=O)N2COC[C@@H]2c2ccccc2)c1`: the inhibition at Beta-secretase 1 [1] worked out at 95%; at Beta-secretase 1 [2] it was 65%. Regarding `O=C(N[C@@H](Cc1ccccc1)[C@H](O)C(=O)Nc1cccc(-c2nn[nH]n2)c1)c1cc(C(=O)N2COC[C@@H]2Cc2ccc(O)cc2)cc([N+](=O)[O-])c1`, the inhibition on Beta-secretase 1 [1] came to 80%. As for `O=C(N[C@@H](Cc1ccccc1)[C@H](O)C(=O)Nc1cccc(-c2nn[nH]n2)c1)c1cc(C(=O)N2COC[C@@H]2Cc2ccccc2)cc([N+](=O)[O-])c1`, the values for the inhibition on Beta-secretase 1 [1] and on Beta-secretase 1 [2] were 89% and 45%, respectively. The like results for `CC(C)C[C@H]1COCN1C(=O)c1cc(C(=O)N[C@@H](Cc2ccccc2)[C@H](O)C(=O)Nc2cccc(-c3nn[nH]n3)c2)cc([N+](=O)[O-])c1` were, in that order, 85% and 42%.

In the case of `CSCC[C@H]1COCN1C(=O)c1cc(C(=O)N[C@@H](Cc2ccccc2)[C@H](O)C(=O)Nc2cccc(-c3nn[nH]n3)c2)cc([N+](=O)[O-])c1`, the inhibition on Beta-secretase 1 [1] came to 86%; on Beta-secretase 1 [2] it was 45%.

Consider `O=C(N[C@@H](Cc1ccccc1)[C@H](O)C(=O)Nc1cccc(-c2nn[nH]n2)c1)c1cc(C(=O)N2COC[C@@H]2Cc2c[nH]c3ccccc23)cc([N+](=O)[O-])c1`, for which, at Beta-secretase 1 [1], the inhibition is 57%.

On to `O=C(N[C@@H](Cc1ccccc1)[C@H](O)C(=O)Nc1cccc(-c2nn[nH]n2)c1)c1cc(C(=O)N2CCCCCC2)cc([N+](=O)[O-])c1`, for which the inhibition on Beta-secretase 1 [1] worked out at 60%.

Take `O=C(N[C@@H](Cc1ccccc1)[C@H](O)C(=O)Nc1cccc(-c2nn[nH]n2)c1)c1cc(C(=O)N2CCOCC2)cc([N+](=O)[O-])c1`: the inhibition at Beta-secretase 1 [1] was found to be 0%. For `C[C@@H](NC(=O)c1cc(C(=O)N[C@@H](Cc2ccccc2)[C@H](O)C(=O)Nc2cccc(-c3nn[nH]n3)c2)cc([N+](=O)[O-])c1)c1ccccc1`, the results for the inhibition on Beta-secretase 1 [1] and on Beta-secretase 1 [2] were 83% and 44%, respectively. Consider `C[C@H]1COCN1C(=O)c1cc(C(=O)N[C@@H](Cc2ccccc2)[C@H](O)C(=O)Nc2cccc(-c3nn[nH]n3)c2)cc([N+](=O)[O-])c1`, for which the inhibition at Beta-secretase 1 [1] was 33%. In the case of `O=C(N[C@@H](Cc1ccccc1)[C@H](O)C(=O)Nc1cccc(-c2nn[nH]n2)c1)c1cc(C(=O)N2COC[C@@H]2c2cc(F)c(F)c(F)c2)cc([N+](=O)[O-])c1`, the inhibition was 81% at Beta-secretase 1 [1] and 41% at Beta-secretase 1 [2]. For `O=C(N[C@@H](Cc1ccccc1)[C@H](O)C(=O)Nc1cccc(-c2nnn[nH]2)c1)c1cc(I)cc(C(=O)N2COC[C@@H]2c2ccccc2)c1`, the IC50 on Beta-secretase 1 [3] turned out to be 34 nM. `Nc1cc(C(=O)N[C@@H](Cc2ccccc2)[C@H](O)C(=O)Nc2cccc(-c3nn[nH]n3)c2)cc(C(=O)N2COC[C@@H]2c2ccccc2)c1`: the inhibition on Beta-secretase 1 [1] was determined as 49%.

As to `O=C(N[C@@H](Cc1ccccc1)[C@H](O)C(=O)Nc1cccc(-c2nn[nH]n2)c1)c1cccc(C(=O)N2COC[C@@H]2c2ccccc2)c1`, the inhibition at Beta-secretase 1 [1] is 85%; on Beta-secretase 1 [2], 46%. In addition, the IC50 on Beta-secretase 1 [3] came to 192 nM. Turning to `CC(C)[C@H]1COCN1C(=O)c1cc(C(=O)N[C@@H](Cc2ccccc2)[C@H](O)C(=O)Nc2cccc(-c3nn[nH]n3)c2)cc([N+](=O)[O-])c1`, the inhibition on Beta-secretase 1 [1] turned out to be 88%; at Beta-secretase 1 [2] it was 44%.
